Results reported in patent US20040147606A1, “Medicinal compositions” (priority 2001, published 2004).

Assays:
[1] = tested on: goblet cells; test: Test for confirming synergetic expectorant effect: number of goblet cells in the air tube after intratracheal LPS; type: in vivo, Fischer (F334) rats; details: for Number of goblet cells: counted three days after LPS; for expectorant effect (number of goblet cells), result in words: summary of Table 1
From the text: Improvement of the expectorant effect by using fudosteine and an antipyretic/analgesic in combination was confirmed by the method described below. Seven 12-week-old male Fischer ([…]) rats for one group were used as test animals. The rats were anesthetized with pentobarbital and their skin was disinfected using the Isodine solution for surgery. The trachea of the rats was exposed by midline incision. The injection needle ([…], Hamilton) attached to a Hamilton injection syringe was inserted from the pharynx to inject lipopolysaccharide (LPS, 10 μg/500 μl) into the air tube. The samples of which the components and dose are shown in Table 1 were dissolved or suspended in a 0.5% CMC-Na solution. The solution or suspension was orally administered to the rats three times in total, specifically, 30 minutes before administering LPS, 24 hours after administering LPS, and 48 hours after administering LPS. Three days after administering LPS, the rats were bled to death by cutting the abdominal aorta under pentobarbital anesthesia. A part of the air tube and bronchial tube was removed and fixed with a 10% neutral buffered formalin solution. The fixed bronchial tube was embedded in paraffin according to a conventional method. The air tube was cut into slices in the cross-section. The slices were stained with alcian blue/PAS (AB/PAS). The AB/PAS stained samples of each air tube were microscopically examined to measure the number of goblet cells according to the reported procedure (Enviromn. Tixicol. Pharmacol., vol. 5, p. 173, 1998).

[2] = tested on: Wistar rats; test: Test for confirming synergetic antiinflammatory effect: carrageenan footpad edema; type: in vivo; details: for Edema ratio (%): four hours after carrageenan; for antiinflammatory effect, result in words: summary of Table 2
Method: Improvement on the antiinflammatory effect by using fudosteine and an antipyretic/analgesic in combination was confirmed by the method described below. Five five-week-old male Wistar rats for one group were used as test animals. The samples of which the components and dose are shown in Table 2 were dissolved or suspended in a 0.5% CMC-Na solution. The solution or suspension was orally administered to the rats once a day in five consecutive days. Two hours after the administration on the last administration day, 0.1 ml of an inflammatory (carrageenan) was hypodermically injected into the right hind footpad of the rats. The limb volume of the rats was measured four hours after injecting the inflammatory. The edema ratio was calculated based on the limb volume before injecting the inflammatory. The rats were coated with a licking prevention hood, followed by measuring the right hind limb volume using a plethysmometer (manufactured by Ugo Basile).

[3] = 100 mg/kg orally once a day for five days

CC(=O)Nc1ccc(O)cc1 [Acetaminophen, acetaminophen]
Number of goblet cells ([1]; 100 mg/kg orally, three times): 125.7 ± 2.4 | Number of goblet cells ([1]; 200 mg/kg orally, three times): 122.9 ± 1.7 | expectorant effect (number of goblet cells), result in words [1]: did not exhibit an expectorant effect | Edema ratio (%) [2, 3]: 70.6 ± 0.68 % | Edema ratio (%) ([2]; 200 mg/kg orally once a day for five days): 60.6 ± 0.88 ^b) % | antiinflammatory effect, result in words [2]: dose-dependent antiinflammatory effect

N[C@@H](CSCCCO)C(=O)O [Fudosteine, S-(3-hydroxypropyl)-L-cysteine]
Number of goblet cells ([1]; 30 mg/kg orally, three times (30 min before, 24 h and 48 h after LPS)): 75.7 ± 1.3 | expectorant effect (number of goblet cells), result in words [1]: exhibited an expectorant effect

CC(C)Cc1ccc(C(C)C(=O)O)cc1 (centres unmarked) [Ibuprofen, ibuprofen]
Number of goblet cells ([1]; 50 mg/kg orally, three times): 124.9 ± 1.8 | Number of goblet cells ([1]; 100 mg/kg orally, three times): 124.3 ± 2.0 | expectorant effect (number of goblet cells), result in words [1]: did not exhibit an expectorant effect | Edema ratio (%) ([2]; 50 mg/kg orally once a day for five days): 70.6 ± 0.89 % | Edema ratio (%) [2, 3]: 60.6 ± 0.79 ^a) % | antiinflammatory effect, result in words [2]: dose-dependent antiinflammatory effect
